{
  "source": "patent US20130210851A1",
  "about": "“Crystalline forms of a hexahydrofuro[3,4-c]quinoline derivative” (Boehringer Ingelheim International GmbH, priority 2011, published 2013)",
  "format_in_all_cases": "physicochemical",
  "key": {"[1]": {"test": "Solubility of the saturated solution in aqueous media", "details": "thermodynamic from solid, 48 h shaking at room temperature, read-out: solubility RT - values"}, "[2]": {"test": "Intrinsic dissolution rate in aqueous media (rotating disc method)", "details": "37° C., 200 rpm", "experimental": "The intrinsic dissolution rate of the crystalline hydrochloride salt form of (3R,9S)-4-isopropyl-7,7-dimethyl-3-(4-(trifluoromethyl)phenyl)-2′,3′,5′,6,6′,7,8,9-octahydro-3H-spiro[furo[3,4-c]quinoline-1,4′-pyran]-9-ol is determined in aqueous media covering a range of pH 1.1-7.4 using the rotating disc method which maintains a constant surface area. 5 mg drug substance is compressed to form a disc at 356.1 N for 60 s. These discs are mounted to specially designed sample holders which fit into a Sotax dissolution tester. The dissolution media (37° C.) are stirred at 200 rpm. Samples are automatically withdrawn every second minute from the dissolution vessel and assayed via UV spectrophotometry. The intrinsic dissolution rate expressed in μg/cm^2/min is calculated using the slope of the concentration versus time plot and from the linear portion of the slope of the dissolution curve, volume of dissolution medium (35 ml) and area (diameter: 2 mm) of the exposed disk."}, "[3]": {"test": "Hygroscopic behaviour, water sorption isotherms (DVS-1)", "details": "25° C.; for hygroscopicity (in words): sorption isotherms 10% to 90% r.h.; for uptake of water: up to 90% r.h.", "experimental": "To study the hygroscopic behaviour of this material, sorption isotherms are registered on a DVS-1 water sorption monitor from Surface Measurement Systems. Adsorption and desorption isotherms are performed at 25° C. with 10% r.h. step intervals ranging from 10% r.h. up to 90% r.h."}, "[4]": {"test": "Solid state stability under harsh stress conditions", "text": "Under all applied severe stress conditions only very low or minor decomposition (Σ</=about 6% degradation impurities measured as peak area percentage from HPLC-diagrams using a standard gradient technique) can be observed."}},
  "note": "Entries after “also recorded” stand apart in the source; their conditions may differ. Where two headings read alike, the source gives them in different places.",
  "data": [
    {"smiles": "CC(C)c1nc2c(c3c1[C@@H](c1ccc(C(F)(F)F)cc1)OC31CCOCC1)[C@@H](O)CC(C)(C)C2.Cl", "note": "[crystalline hydrochloride salt form, Hydrogen Chloride Salt of (3R,9S)-4-isopropyl-7,7-dimethyl-3-(4-(trifluoromethyl)phenyl)-2′,3′,5′,6,6′,7,8,9-octahydro-3H-spiro[furo[3,4-c]quinoline-1,4′-pyran]-9-ol]", "values": [
      {"measurement": "solubility at 48 h", "setting": "[1]; McIlvaine buffer, aqueous buffer, McIlvaine pH 2.2, intrinsic pH 2.0", "result": 1600, "unit": "µg/mL"},
      {"measurement": "solubility at 48 h", "setting": "[1]; McIlvaine buffer, aqueous buffer, McIlvaine pH 3.0, intrinsic pH 3.0", "result": 400, "unit": "µg/mL"},
      {"measurement": "solubility at 48 h", "setting": "[1]; McIlvaine buffer, aqueous buffer, McIlvaine pH 4.0, intrinsic pH 4.0", "result": 90, "unit": "µg/mL"},
      {"measurement": "solubility at 48 h", "setting": "[1]; McIlvaine buffer, aqueous buffer, McIlvaine pH 4.5, intrinsic pH 4.6", "result": 30, "unit": "µg/mL"},
      {"measurement": "solubility at 48 h", "setting": "[1]; McIlvaine buffer, aqueous buffer, McIlvaine pH 5.0, intrinsic pH 5.1", "result": 3, "unit": "µg/mL"},
      {"measurement": "solubility at 48 h", "setting": "[1]; McIlvaine buffer, aqueous buffer, McIlvaine pH 6.0, intrinsic pH 6.2", "result": "< 3", "unit": "µg/mL"},
      {"measurement": "solubility at 48 h", "setting": "[1]; McIlvaine buffer, aqueous buffer, McIlvaine pH 6.8, intrinsic pH 7.0", "result": "< 3", "unit": "µg/mL"},
      {"measurement": "solubility at 48 h", "setting": "[1]; McIlvaine buffer, aqueous buffer, McIlvaine pH 7.4, intrinsic pH 7.7, determined by LC/MS", "result": 0.26, "unit": "µg/mL"},
      {"measurement": "solubility at 48 h", "setting": "[1]; Sorensen buffer, aqueous buffer, Sorensen pH 10.0, intrinsic pH 9.6", "result": "< 3", "unit": "µg/mL"},
      {"measurement": "solubility at 48 h", "setting": "[1]; acetate buffer, aqueous buffer, Acetate pH 3.0, intrinsic pH 3.0", "result": 200, "unit": "µg/mL"},
      {"measurement": "solubility at 48 h", "setting": "[1]; acetate buffer, aqueous buffer, Acetate pH 4.0, intrinsic pH 4.2", "result": 60, "unit": "µg/mL"},
      {"measurement": "solubility at 48 h", "setting": "[1]; acetate buffer, aqueous buffer, Acetate pH 5.0, intrinsic pH 5.3", "result": 6, "unit": "µg/mL"},
      {"measurement": "solubility at 48 h", "setting": "[1]; simulated gastric fluid, 0.01N HCl, intrinsic pH 1.9", "result": 1900, "unit": "µg/mL"},
      {"measurement": "solubility at 48 h", "setting": "[1]; simulated gastric fluid, 0.1N HCl, intrinsic pH 0.9", "result": 4100, "unit": "µg/mL"},
      {"measurement": "solubility at 48 h", "setting": "[1]; FaSSIF (Fasted State Simulated Intestinal), intrinsic pH 6.5", "result": 20, "unit": "µg/mL"},
      {"measurement": "solubility at 48 h", "setting": "[1]; FeSSIF (Fed State Simulated Intestinal), intrinsic pH 5.0", "result": 30, "unit": "µg/mL"},
      {"measurement": "solubility at 48 h", "setting": "[1]; water, intrinsic pH 1.6", "result": 3100, "unit": "µg/mL"},
      {"measurement": "dissolution rate", "setting": "[2]; 0.1N HCl", "result": 230, "unit": "μg/cm^2/min"},
      {"measurement": "dissolution rate", "setting": "[2]; pH 2.2 (McIlvaine)", "result": 250, "unit": "μg/cm^2/min"},
      {"measurement": "dissolution rate", "setting": "[2]; pH 3.0 (McIlvaine)", "result": 60, "unit": "μg/cm^2/min"},
      {"measurement": "dissolution rate", "setting": "[2]; pH 4.0 (McIlvaine)", "result": 10, "unit": "μg/cm^2/min"},
      {"measurement": "dissolution rate", "setting": "[2]; pH 4.5 (McIlvaine)", "result": 10, "unit": "μg/cm^2/min"},
      {"measurement": "dissolution rate", "setting": "[2]; water", "result": 10, "unit": "μg/cm^2/min"},
      {"measurement": "hygroscopicity (in words)", "setting": "[3]", "result": "not hygroscopic; also recorded: non-hygroscopic"},
      {"measurement": "decomposition, sum of degradation impurities (peak area percentage from HPLC)", "setting": "[4]; all stress conditions: 24 hours at 105° C., 72 hours at 60° C. and 70% rel. humid., 24 hours in a Xenotester", "result": "≤ 6", "unit": "%"},
      {"measurement": "solid state stability (in words)", "setting": "[4]; harsh stress conditions for solid state", "result": "stable in the solid state"}
    ]},
    {"smiles": "CC(C)c1nc2c(c3c1[C@@H](c1ccc(C(F)(F)F)cc1)OC31CCOCC1)[C@@H](O)CC(C)(C)C2", "note": "[compound of formula (I), (3R,9S)-4-isopropyl-7,7-dimethyl-3-(4-(trifluoromethyl)phenyl)-2′,3′,5′,6,6′,7,8,9-octahydro-3H-spiro[furo[3,4-c]quinoline-1,4′-pyran]-9-ol]", "values": [
      {"measurement": "hygroscopicity (in words)", "setting": "[3]", "result": "not hygroscopic"},
      {"measurement": "uptake of water", "setting": "[3]", "result": "about 0.2%"}
    ]},
    {"smiles": "Br.CC(C)c1nc2c(c3c1[C@@H](c1ccc(C(F)(F)F)cc1)OC31CCOCC1)[C@@H](O)CC(C)(C)C2", "note": "[crystalline hydrobromide salt form, Hydrogen Bromide Salt of (3R,9S)-4-isopropyl-7,7-dimethyl-3-(4-(trifluoromethyl)phenyl)-2′,3′,5′,6,6′,7,8,9-octahydro-3H-spiro[furo[3,4-c]quinoline-1,4′-pyran]-9-ol]", "values": [
      {"measurement": "hygroscopicity (in words)", "setting": "[3]", "result": "not hygroscopic"},
      {"measurement": "uptake of water", "setting": "[3]", "result": "about 0.9%"}
    ]}
  ]
}
